Results as given in patent publication US20260248799A1, “COMBINATIONS OF RETINALDEHYDE DEHYDROGENASE 1 (RALDH1) INHIBITORS AND IMMUNOSTIMULATORS AND METHODS USING SAME” (The Trustees of the University of Pennsylvania, priority 2023, published 2026).

Legend:
Huh1 tumors = Huh1 tumors in nude mice; format: in vivo, mouse; details: huh1 in immunodeficient mice; i.p, 10 mg/kg every day
Description: FIG. 27A: Huh1 tumor-bearing nude mice were treated with C86 (i.p, 10 mg/kg) every day. Three or more independent experiments with at least three replicates per sample type. Two-tailed T test. *p<0.05, **p<0.01, ***p<0.001. FIG. 27B: Equal numbers of Raldh1-KO Huh7 and parental Huh7 cells were seeded and viable cells counted over time. […] FIG. 27C: NU/J mice harboring flank Huh7 tumors were treated i.p with C86 daily or with liposomal chlodronate (CloLipo, 200 μl/mouse) every four days. Tumors were harvested 13 days post tumor induction and analyzed for the frequency (left graph) and number (right graph) of the macrophages (CD45+ F4/80+) under different treatment conditions (X-axis). Three or more independent experiments with at least three replicates per sample type. Two-tailed T test. *p<0.05, **p<0.01, ***p<0.001. FIG. 27D: Pictures depicting size differences amongst tumors in experiment outlined in FIG. 26G. […]
Cultured Huh7, Huh1, Hepa 1-6, Hep55, and FS (as indicated in figure legends) tumor cells were detached using 0.25% trypsin (Gibco, catalog #25200056), washed once with 1×PBS, and counted before implantation. […] Tumor dimensions were measured using a caliper starting at the day indicated in the accompanying figure legend and every two to three days thereafter; volume was calculated by using formula Length*Width^2/2. […]

[1] = Chow PK of C86, 15-day study in CD-1 mice; format: in vivo, mouse; details: 15-day period
Description: FIG. 31A: Completed blood count (CBC) was performed at IDEXX on whole blood collected from indicated RALDH1 genotypes (X-axis). One experiment with four replicates per experimental group. One-way ANOVA. *p<0.05, **p<0.01, ***p<0.001. FIG. 31B: Weights of mice of the indicated RALDH1 genotypes. Siblings were used for all genotypes to control for confounding factors. One experiment with four replicates per experimental group. One-way ANOVA. *p<0.05, **p<0.01, ***p<0.001. […] Diet (or PO) #A, B, and C (shown in the inbox of individual graphs) corresponds to drug dose of 10, 30, and 60 mg/kg respectively. Mice had free access to food and water during the 15-day study.
The PK studies were done at NIH or a commercial CRO—Pharmacon using their in-house standard protocol. […] For C99, IV and PO, performed at NIH using CD-1 mice; formulation: 20% HPbCD in saline.

[2] = target: T1, Peptidase, Angiotensin Converting Enzyme (Oryctolagus cuniculus, UniProt P12822); assay: Safetyscreen: ACE; format: biochemical, rabbit; details: read-out: % Inh. Peptidase, Angiotensin Converting Enzyme
T1 construct: Eurofins Cerep Panlabs (contract panel)

[3] = target: T2, Protein Tyrosine Kinase, LCK (Homo sapiens, UniProt P06239); assay: Safetyscreen: LCK; format: biochemical; details: read-out: % Inh. Protein Tyrosine Kinase, LCK
T2 construct: Eurofins Cerep Panlabs (contract panel)

Adrenergic α1A = target: T3, Adrenergic α1A (Rattus norvegicus, UniProt P43140); assay: Safetyscreen: Adrenergic α1A; format: binding; details: read-out: % Inh. Adrenergic α1A
T3 construct: Eurofins Cerep Panlabs (contract panel)

Adrenergic α2A = target: T4, Adrenergic α2A (Homo sapiens, UniProt P08913); assay: Safetyscreen: Adrenergic α2A; format: binding; details: read-out: % Inh. Adrenergic α2A
T4 construct: Eurofins Cerep Panlabs (contract panel)

Androgen (Testosterone) = target: T5, Androgen (Testosterone) (Homo sapiens, UniProt P10275); assay: Safetyscreen: Androgen; format: binding; details: read-out: % Inh. Androgen (Testosterone)
T5 construct: Eurofins Cerep Panlabs (contract panel)

Bradykinin B2 = target: T6, Bradykinin B2 (Homo sapiens, UniProt P30411); assay: Safetyscreen: Bradykinin B2; format: binding; details: read-out: % Inh. Bradykinin B2
T6 construct: purchased Eurofins Cereps Panlabs

[4] = system: Calcium Channel L-Type, Dihydropyridine; assay: Safetyscreen: Ca channel L-type, dihydropyridine; format: binding, rat; details: 10 μM
[5] = system: GABAA, Ro-15-1788, Hippocampus; assay: Safetyscreen: GABAA, Ro-15-1788; format: binding, rat; details: 10 μM
[6] = system: Glutamate, NMDA, Phencyclidine; assay: Safetyscreen: NMDA, Phencyclidine; format: binding, rat; details: 10 μM
[7] = system: Glutamate, NMDA, Polyamine; assay: Safetyscreen: NMDA, Polyamine; format: binding, rat; details: 10 μM
Melanocortin MC1 = target: T7, Melanocortin MC1 (Homo sapiens, UniProt Q01726); assay: Safetyscreen: MC1; format: binding; details: read-out: % Inh. Melanocortin MC1
T7 construct: purchased Eurofins Cereps Panlabs

Melanocortin MC4 = target: T8, Melanocortin MC4 (Homo sapiens, UniProt P32245); assay: Safetyscreen: MC4; format: binding; details: read-out: % Inh. Melanocortin MC4
T8 construct: Eurofins Cereps Panlabs (contract panel)

Muscarinic M2 = target: T9, Muscarinic M2 (Homo sapiens, UniProt P08172); assay: Safetyscreen: Muscarinic M2; format: binding; details: read-out: % Inh. Muscarinic M2
T9 construct: Eurofins Cereps Panlabs (contract panel)

Nicotinic Acetylcholine = assay: Safetyscreen: Nicotinic Acetylcholine; format: binding, human; details: 10 μM
Opiate δ1 (OP1, DOP) = target: T10, Opiate δ1 (OP1, DOP) (Homo sapiens, UniProt P41143); assay: Safetyscreen: Opiate δ1; format: binding; details: read-out: % Inh. Opiate δ1 (OP1, DOP)
T10 construct: Eurofins Cereps Panlabs (contract panel)

[8] = target: T11, Serotonin (5-Hydroxytryptamine) 5-HT2B (Homo sapiens, UniProt P41595); assay: Safetyscreen: 5-HT2B; format: binding; details: read-out: % Inh. Serotonin (5-Hydroxytryptamine) 5-HT2B
T11 construct: Eurofins Cereps Panlabs (contract panel)

Tachykinin NK1 = target: T12, Tachykinin NK1 (Homo sapiens, UniProt P25103); assay: Safetyscreen: Tachykinin NK1; format: binding; details: read-out: % Inh. Tachykinin NK1
T12 construct: Eurofins Cereps Panlabs (contract panel)
T12 sequence (P25103 whole entry): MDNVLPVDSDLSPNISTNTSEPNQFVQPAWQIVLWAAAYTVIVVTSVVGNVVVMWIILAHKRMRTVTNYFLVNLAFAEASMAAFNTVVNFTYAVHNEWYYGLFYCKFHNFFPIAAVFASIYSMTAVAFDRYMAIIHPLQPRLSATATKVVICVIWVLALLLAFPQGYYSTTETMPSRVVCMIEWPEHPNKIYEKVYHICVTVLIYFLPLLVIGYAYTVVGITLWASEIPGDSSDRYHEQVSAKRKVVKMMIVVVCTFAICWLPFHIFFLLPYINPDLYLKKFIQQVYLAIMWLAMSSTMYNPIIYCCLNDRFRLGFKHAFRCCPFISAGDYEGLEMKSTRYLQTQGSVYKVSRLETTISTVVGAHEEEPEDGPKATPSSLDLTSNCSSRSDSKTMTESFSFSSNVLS

T1 sequence (P12822 34-1310): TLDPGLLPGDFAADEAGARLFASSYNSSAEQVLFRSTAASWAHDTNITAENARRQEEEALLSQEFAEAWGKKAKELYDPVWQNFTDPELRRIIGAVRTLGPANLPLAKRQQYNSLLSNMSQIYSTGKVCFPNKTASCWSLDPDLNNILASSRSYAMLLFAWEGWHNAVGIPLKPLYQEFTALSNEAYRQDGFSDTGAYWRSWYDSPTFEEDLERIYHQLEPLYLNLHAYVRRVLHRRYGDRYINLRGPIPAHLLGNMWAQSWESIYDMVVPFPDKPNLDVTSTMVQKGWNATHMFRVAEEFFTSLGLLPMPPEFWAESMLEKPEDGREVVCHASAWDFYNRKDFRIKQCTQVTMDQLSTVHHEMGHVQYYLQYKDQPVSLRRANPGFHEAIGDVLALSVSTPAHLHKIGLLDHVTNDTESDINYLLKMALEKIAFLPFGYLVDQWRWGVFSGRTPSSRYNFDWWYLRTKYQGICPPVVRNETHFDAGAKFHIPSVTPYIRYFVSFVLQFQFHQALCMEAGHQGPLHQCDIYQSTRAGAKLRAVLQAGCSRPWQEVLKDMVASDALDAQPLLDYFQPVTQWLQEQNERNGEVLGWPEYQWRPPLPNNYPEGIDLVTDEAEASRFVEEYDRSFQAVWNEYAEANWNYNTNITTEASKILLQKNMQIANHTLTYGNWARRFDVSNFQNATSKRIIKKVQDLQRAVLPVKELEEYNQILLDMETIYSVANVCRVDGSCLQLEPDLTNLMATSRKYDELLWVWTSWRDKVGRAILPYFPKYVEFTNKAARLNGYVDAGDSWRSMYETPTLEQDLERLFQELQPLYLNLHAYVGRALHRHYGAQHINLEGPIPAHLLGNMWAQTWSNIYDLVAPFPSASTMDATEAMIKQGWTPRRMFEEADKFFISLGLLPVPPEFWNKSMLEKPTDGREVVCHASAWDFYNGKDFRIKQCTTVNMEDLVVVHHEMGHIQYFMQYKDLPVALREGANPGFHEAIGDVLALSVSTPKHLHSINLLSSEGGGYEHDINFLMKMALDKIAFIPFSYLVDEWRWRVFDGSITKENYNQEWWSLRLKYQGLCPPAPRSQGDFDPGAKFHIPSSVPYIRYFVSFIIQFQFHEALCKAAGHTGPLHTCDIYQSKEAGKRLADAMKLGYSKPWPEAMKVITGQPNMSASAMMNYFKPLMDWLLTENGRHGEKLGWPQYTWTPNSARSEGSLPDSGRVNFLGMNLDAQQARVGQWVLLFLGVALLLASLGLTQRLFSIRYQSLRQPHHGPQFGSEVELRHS
T11 sequence (P41595 whole entry): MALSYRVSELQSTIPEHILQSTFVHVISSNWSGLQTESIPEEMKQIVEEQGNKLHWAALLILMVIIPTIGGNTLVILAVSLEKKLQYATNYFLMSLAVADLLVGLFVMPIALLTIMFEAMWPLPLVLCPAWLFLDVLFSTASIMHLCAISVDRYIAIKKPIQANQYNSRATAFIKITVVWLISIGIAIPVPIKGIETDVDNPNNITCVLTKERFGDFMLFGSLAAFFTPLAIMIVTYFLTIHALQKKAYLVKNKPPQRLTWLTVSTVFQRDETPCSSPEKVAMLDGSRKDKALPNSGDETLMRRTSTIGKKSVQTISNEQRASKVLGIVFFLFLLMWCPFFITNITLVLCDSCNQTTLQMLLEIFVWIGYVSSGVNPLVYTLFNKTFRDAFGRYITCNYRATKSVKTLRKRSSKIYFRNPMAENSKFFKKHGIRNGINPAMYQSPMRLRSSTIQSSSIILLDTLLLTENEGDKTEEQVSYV
T4 sequence (P08913 whole entry): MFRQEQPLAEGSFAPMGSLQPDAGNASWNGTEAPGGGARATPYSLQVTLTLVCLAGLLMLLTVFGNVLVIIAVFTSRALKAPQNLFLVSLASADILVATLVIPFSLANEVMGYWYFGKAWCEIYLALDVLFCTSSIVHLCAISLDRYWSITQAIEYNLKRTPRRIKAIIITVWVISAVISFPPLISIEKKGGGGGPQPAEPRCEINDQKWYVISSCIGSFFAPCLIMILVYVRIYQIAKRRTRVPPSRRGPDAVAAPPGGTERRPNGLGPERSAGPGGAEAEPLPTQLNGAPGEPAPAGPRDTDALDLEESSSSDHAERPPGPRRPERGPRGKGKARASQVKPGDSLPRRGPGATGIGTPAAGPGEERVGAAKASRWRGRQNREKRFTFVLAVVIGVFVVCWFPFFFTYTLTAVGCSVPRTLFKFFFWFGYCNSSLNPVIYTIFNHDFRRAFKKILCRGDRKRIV
T2 sequence (P06239 whole entry): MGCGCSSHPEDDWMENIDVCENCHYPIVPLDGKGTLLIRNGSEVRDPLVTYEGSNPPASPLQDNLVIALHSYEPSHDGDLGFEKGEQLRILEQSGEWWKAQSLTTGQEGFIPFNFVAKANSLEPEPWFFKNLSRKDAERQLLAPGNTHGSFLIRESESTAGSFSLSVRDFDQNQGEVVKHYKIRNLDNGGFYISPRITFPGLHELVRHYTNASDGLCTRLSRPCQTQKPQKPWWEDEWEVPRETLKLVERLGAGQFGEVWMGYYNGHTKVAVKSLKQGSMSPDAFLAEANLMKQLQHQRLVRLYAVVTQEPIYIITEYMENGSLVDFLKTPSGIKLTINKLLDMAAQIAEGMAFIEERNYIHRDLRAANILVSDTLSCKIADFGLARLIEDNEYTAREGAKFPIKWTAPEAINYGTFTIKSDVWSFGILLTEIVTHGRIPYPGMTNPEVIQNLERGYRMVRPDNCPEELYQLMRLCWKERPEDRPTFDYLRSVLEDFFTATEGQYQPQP
T7 sequence (Q01726 whole entry): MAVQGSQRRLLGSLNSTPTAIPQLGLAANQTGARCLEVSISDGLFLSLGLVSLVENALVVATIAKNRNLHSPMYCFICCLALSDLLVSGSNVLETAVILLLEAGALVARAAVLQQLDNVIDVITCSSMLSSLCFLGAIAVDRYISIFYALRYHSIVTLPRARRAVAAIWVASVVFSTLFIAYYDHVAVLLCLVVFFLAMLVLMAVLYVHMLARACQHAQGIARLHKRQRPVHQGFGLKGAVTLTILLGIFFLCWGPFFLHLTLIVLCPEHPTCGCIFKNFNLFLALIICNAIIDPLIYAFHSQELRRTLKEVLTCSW
T5 sequence (P10275 whole entry): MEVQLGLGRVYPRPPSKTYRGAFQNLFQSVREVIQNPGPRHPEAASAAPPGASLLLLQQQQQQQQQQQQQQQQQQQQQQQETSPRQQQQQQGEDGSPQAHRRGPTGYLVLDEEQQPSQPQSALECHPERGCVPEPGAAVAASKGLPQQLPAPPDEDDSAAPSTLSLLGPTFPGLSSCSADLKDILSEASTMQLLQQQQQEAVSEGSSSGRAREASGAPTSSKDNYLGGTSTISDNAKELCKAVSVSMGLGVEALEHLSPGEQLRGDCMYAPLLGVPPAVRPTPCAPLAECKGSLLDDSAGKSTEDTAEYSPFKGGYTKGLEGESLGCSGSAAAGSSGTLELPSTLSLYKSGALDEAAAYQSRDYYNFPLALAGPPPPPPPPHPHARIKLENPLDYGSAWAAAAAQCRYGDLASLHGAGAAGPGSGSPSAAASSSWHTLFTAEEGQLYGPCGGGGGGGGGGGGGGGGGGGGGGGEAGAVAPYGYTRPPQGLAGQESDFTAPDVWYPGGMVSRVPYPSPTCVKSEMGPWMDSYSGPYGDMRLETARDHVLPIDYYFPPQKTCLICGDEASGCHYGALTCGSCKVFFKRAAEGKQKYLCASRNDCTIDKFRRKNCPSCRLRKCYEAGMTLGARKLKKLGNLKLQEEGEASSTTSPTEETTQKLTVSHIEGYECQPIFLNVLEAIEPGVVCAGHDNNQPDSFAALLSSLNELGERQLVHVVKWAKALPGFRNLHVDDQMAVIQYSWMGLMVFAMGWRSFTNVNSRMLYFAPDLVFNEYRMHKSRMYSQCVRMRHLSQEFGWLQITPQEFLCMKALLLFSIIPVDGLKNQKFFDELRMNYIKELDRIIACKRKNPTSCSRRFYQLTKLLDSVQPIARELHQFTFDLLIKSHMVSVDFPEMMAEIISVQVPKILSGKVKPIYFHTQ
T8 sequence (P32245 whole entry): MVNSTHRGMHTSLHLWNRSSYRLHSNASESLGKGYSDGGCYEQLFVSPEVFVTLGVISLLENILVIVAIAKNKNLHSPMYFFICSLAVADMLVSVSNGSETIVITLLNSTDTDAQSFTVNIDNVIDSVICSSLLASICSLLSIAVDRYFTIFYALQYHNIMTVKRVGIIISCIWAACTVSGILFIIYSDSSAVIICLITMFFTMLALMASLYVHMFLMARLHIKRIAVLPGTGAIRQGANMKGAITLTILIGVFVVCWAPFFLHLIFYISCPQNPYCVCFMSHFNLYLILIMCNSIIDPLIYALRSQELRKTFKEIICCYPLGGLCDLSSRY

## CS(=O)(=O)N1CCN(C(=O)c2cnc3ccc(F)cc3c2N2CCC(C#N)(c3ccccc3)CC2)CC1 [Compound C-86, 1-(6-fluoro-3-(4-(methylsulfonyl)piperazine-1-carbonyl)quinolin-4-yl)-4-phenylpiperidine-4-carbonitrile]
Huh1 tumors
  tumor inhibition: significant tumor inhibition
[1]; chow, 10, 30 and 60 mg/kg
  drug exposure over time: consistent drug exposure over time
[1]; chow
  body weight: without affecting body weight
[2]
  inhibition at 10 µM: -6%
[3]
  inhibition at 10 µM: 3%
Adrenergic α1A
  inhibition at 10 µM: 6%
Adrenergic α2A
  inhibition at 10 µM: 0%
Androgen (Testosterone)
  inhibition at 10 µM: 16%
Bradykinin B2
  inhibition at 10 µM: 2%
[4]
  % Inh. Calcium Channel L-Type, Dihydropyridine: 23%
[5]
  % Inh. GABAA, Ro-15-1788, Hippocampus: −7%
[6]
  % Inh. Glutamate, NMDA, Phencyclidine: 5%
[7]
  % Inh. Glutamate, NMDA, Polyamine: 1%
Melanocortin MC1
  inhibition at 10 µM: 8%
Melanocortin MC4
  inhibition at 10 µM: 13%
Muscarinic M2
  inhibition at 10 µM: 4%
Nicotinic Acetylcholine
  % Inh. Nicotinic Acetylcholine: 5%
Opiate δ1 (OP1, DOP)
  inhibition at 10 µM: 2%
[8]
  inhibition at 10 µM: -5%
Tachykinin NK1
  inhibition at 10 µM: 37%
